What all share (format): in vivo
Common to all, as to conditions: 144 h, read-out: mortality rate

The subject of assay [1] is diamondback moth [コナガ(Plutella xylostella)]. Nature of the assay: 試験例1 コナガに対する殺虫試験 (insecticidal test, 2nd instar larvae).
Assay [2] concerns common cutworm [ハスモンヨトウ(Spodoptera litura)]. Nature of the assay: 試験例2 ハスモンヨトウに対する殺虫試験 (insecticidal test, 2nd instar larvae).
Assay [3] deals with oriental tea tortrix [チャハマキ(Homona magnanima)]. Nature of the assay: 試験例3 チャハマキに対する殺虫試験 (insecticidal test, 2nd instar larvae).
Assay [4] has as its system cucurbit leaf beetle [ウリハムシ(Aulacophora femoralis)]. The experiment in a line: 試験例4 ウリハムシに対する殺虫試験 (insecticidal test, 2nd instar larvae).
The mark [5] stands for this setting: 100 ppm, leaf dip, 2nd instar, 6 days, 25℃.

The structures appear in SMILES notation. Where two headings read alike, the source gives them in different places.

From patent publication JP2006306850A, “置換ベンズアニリド化合物及び有害生物防除剤” (priority 2005, dated 2006) come the findings set out here.

On to `Cc1cc2c(cc1NC(=O)c1cccc(I)c1C(=O)NC(C)C)OC(F)(F)C2(O)C(F)(F)F` (centres unmarked) [4-002], for which the mortality at 100 ppm in assay [1] is 100%; in assay [2], at least 80%; in assay [3], at least 80%. In assay [4], the mortality at 500 ppm came to 100%.
For the molecule `COC(c1ccc(Cl)cc1)(c1ccc(NC(=O)c2cccc(I)c2C(=O)NC(C)C)c(C)c1)C(F)(F)F` (centres unmarked) [3-002], the mortality at 100 ppm in assay [1] was 100%; in assay [2], at least 80%; in assay [3], at least 80%.
As to `Cc1cc(C(C)(O)c2ccc(C(F)(F)F)cn2)ccc1NC(=O)c1cccc(I)c1C(=O)NC(C)C` (centres unmarked) [2-001], the mortality at 100 ppm is 100% in assay [1] and at least 80% in assay [2]. In assay [4], the mortality at 500 ppm stood at 100%.
As for `Cc1cc(C(O)(C(F)(F)F)C(F)(F)Oc2ccc(Cl)cc2)ccc1NC(=O)c1cccc(I)c1C(=O)NC(C)C` (centres unmarked) [2-008], the mortality at 100 ppm in assay [1] is 100%; in assay [2], at least 80%; in assay [3], at least 80%. Also, the mortality at 500 ppm in assay [4] stood at 100%.
For `Cc1cc(C(O)(C=Cc2ccc(Cl)cc2)C(F)(F)F)ccc1NC(=O)c1cccc(I)c1C(=O)NC(C)C` (centres unmarked) [2-018], the mortality at 100 ppm in assay [1] is 100%; in assay [2] it was at least 80%; in assay [3], at least 80%. For the same molecule, in assay [4], the mortality at 500 ppm stood at 100%.
Consider `Cc1cc(C(O)(c2ccc(OS(C)(=O)=O)cc2)C(F)(F)F)ccc1NC(=O)c1cccc(I)c1C(=O)NC(C)C` (centres unmarked) [1-015], for which the mortality at 100 ppm was 100% in assay [1] and at least 80% in assay [2].
For the molecule `Cc1cc(C(O)(c2ccc(OC(F)(F)Br)cc2)C(F)(F)F)ccc1NC(=O)c1cccc(I)c1C(=O)NC(C)C` (centres unmarked) [1-010], the mortality at 100 ppm is 100% in assay [1] (setting [5]), at least 80% in assay [2] (setting [5]) and at least 80% in assay [3] (setting [5]). Further, the mortality at 500 ppm in assay [4] (500 ppm, leaf dip, 2nd instar, 6 days, 25℃) was 100%.
With `Cc1cc(C(O)(c2ccc3c(c2)OC(F)(F)C(F)(F)O3)C(F)(F)F)ccc1NC(=O)c1cccc(I)c1C(=O)NC(C)C` (centres unmarked) [1-028], the mortality at 100 ppm in assay [1] was 100%; in assay [2] it was at least 80%; in assay [3] it was at least 80%. Besides, the mortality at 500 ppm in assay [4] worked out at 100%.
On to `Cc1cc(C(O)(c2ccc(OC(F)(F)F)cc2)C(F)(F)F)ccc1NC(=O)c1cccc(I)c1C(=O)NC(C)C` (centres unmarked) [1-009], for which the results for the mortality at 100 ppm in assay [1], in assay [2] and in assay [3] were 100%, at least 80% and at least 80%, respectively. Also, in assay [4], the mortality at 500 ppm amounted to 100%.
Take `Cc1cc(C(O)(COc2ccc(Cl)cc2)C(F)(F)F)ccc1NC(=O)c1cccc(I)c1C(=O)NC(C)C` (centres unmarked) [2-004]: the mortality at 100 ppm was 100% in assay [1] and at least 80% in assay [2]. Besides, the mortality at 500 ppm in assay [4] stood at 100%.

The term mortality denotes the percentage killed.
